Test results from ChEMBL document CHEMBL1137685, “A three-step synthesis from rebeccamycin of an efficient checkpoint kinase 1 inhibitor” (Eur J Med Chem, 2009).
pIC50: −log10 of the molar value.

What was measured:
[1] = target: T1, Serine/threonine-protein kinase Chk1 (Homo sapiens, UniProt O14757); experiment: Inhibition of GST-tagged human full-length CHK1 expressed in Sf9 cells
T1 sequence (O14757 whole entry): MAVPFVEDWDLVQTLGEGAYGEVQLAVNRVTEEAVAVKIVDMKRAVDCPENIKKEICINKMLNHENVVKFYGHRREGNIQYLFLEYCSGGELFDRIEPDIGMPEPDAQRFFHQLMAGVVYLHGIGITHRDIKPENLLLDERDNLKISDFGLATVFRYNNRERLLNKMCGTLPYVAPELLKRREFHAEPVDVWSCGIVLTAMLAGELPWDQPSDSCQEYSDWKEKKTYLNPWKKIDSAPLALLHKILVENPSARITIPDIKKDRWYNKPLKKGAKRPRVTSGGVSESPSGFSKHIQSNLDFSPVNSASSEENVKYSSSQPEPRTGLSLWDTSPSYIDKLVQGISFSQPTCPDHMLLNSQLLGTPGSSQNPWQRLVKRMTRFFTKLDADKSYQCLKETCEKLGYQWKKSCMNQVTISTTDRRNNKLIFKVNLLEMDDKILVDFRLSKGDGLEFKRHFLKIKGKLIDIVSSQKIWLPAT

[2] = target: T2, Serine/threonine-protein kinase Chk1 (Homo sapiens) (UniProt O14757); conditions: Sf9, 0.1 uM
T2 sequence (whole entry): T1 sequence (O14757 whole entry)
Description: Inhibition of GST-tagged human full-length CHK1 expressed in Sf9 cells at 0.1 uM

[3] = target: Proto-oncogene tyrosine-protein kinase Src (Homo sapiens) (UniProt P12931); experiment: Inhibition of Src at 1 uM
Chain of Proto-oncogene tyrosine-protein kinase Src (Homo sapiens) (P12931 2-536 limits assumed): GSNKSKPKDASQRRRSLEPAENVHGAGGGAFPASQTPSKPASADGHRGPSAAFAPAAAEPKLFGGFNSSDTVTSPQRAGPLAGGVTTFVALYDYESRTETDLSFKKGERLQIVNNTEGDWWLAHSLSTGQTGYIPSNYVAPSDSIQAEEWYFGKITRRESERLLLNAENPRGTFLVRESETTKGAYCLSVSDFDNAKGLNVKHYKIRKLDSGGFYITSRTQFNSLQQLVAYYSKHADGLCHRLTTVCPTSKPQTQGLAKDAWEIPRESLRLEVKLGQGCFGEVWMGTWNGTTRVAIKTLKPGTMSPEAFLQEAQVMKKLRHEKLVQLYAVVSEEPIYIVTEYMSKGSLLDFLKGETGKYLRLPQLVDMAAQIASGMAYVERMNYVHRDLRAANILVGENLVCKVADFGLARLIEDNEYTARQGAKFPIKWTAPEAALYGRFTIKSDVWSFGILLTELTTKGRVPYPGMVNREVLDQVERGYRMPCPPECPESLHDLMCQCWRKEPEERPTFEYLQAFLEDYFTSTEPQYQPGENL

- pIC50 [1]: 8.55
- inhibition [2]: 90%
- inhibition [3]: 35%
Compound: CO[C@H]1[C@H](O)[C@H]2[C@@H](O[C@@H]1CN)n1c3ccccc3c3c4c(c5c6ccccc6n2c5c31)C(=O)NC4=O
